In the NIST ThermoML archive (doi:10.1016/j.tca.2014.04.026):

Test: molar heat capacity at constant pressure
Conditions: 101 kPa, Liquid, Small sample (50 mg) DSC

CCn1cc[n+](C)c1.N#C[C-](C#N)C#N [1-ethyl-3-methyl-1H-imidazolium tricyanomethanide]
Conditions	molar heat capacity at constant pressure [J/K/mol]
296.2 K	357
300.2 K	360
304.2 K	362
308.2 K	364
312.2 K	366
316.2 K	367
320.2 K	369
324.2 K	370
328.2 K	372
332.2 K	374
336.2 K	377
340.2 K	379
344.2 K	382
348.2 K	384
352.2 K	387
356.2 K	390
360.2 K	393
364.2 K	396
368.2 K	399
372.2 K	403
